Data published in patent US20140323504A1, “Pyrazolo[4,3-c]Pyridine Derivatives As Kinase Inhibitors” (Cellzome Limited, priority 2011, published 2014).

Biological target: T1, BLK (Homo sapiens, UniProt P51451)
T1 construct: endogenous in cells; host or cells: 1:1 mix of Jurkat and Ramos cell lysates
Assay: Radiometric protein kinase assay (33PanQinase, ProQinase), BLK
Type: biochemical
Conditions: ATP at apparent Km; read-out: BLK enzyme assay IC50
Method: A radiometric protein kinase assay (^33PanQinase® Activity Assay; ProQinase GmbH, Freiburg, Germany) was used for measuring the kinase activity of the protein kinases BLK, BTK, ITK and JAK3. All kinase assays were performed in 96-well FlashPlates™ from PerkinElmer (Boston, Mass., USA) in a 50 μl reaction volume. The reaction cocktail was pipetted in four steps in the following order: • 20 μl of assay buffer (standard buffer) • 5 μl of ATP solution (in H2O) • 5 μl of test compound (in 10% DMSO) • 10 μl of substrate/10 μl of enzyme solution (premixed)
The reaction cocktails were incubated at 30° C. for 60 minutes. The reaction was stopped with 50 μl of 2% (v/v) H3PO4, plates were aspirated and washed two times with 200 μl 0.9% (w/v) NaCl. Incorporation of ^33Pi was determined with a microplate scintillation counter (Microbeta, Wallac). All assays were performed with a BeckmanCoulter/SAGIAN™ Core System.

T1 sequence (P51451 whole entry): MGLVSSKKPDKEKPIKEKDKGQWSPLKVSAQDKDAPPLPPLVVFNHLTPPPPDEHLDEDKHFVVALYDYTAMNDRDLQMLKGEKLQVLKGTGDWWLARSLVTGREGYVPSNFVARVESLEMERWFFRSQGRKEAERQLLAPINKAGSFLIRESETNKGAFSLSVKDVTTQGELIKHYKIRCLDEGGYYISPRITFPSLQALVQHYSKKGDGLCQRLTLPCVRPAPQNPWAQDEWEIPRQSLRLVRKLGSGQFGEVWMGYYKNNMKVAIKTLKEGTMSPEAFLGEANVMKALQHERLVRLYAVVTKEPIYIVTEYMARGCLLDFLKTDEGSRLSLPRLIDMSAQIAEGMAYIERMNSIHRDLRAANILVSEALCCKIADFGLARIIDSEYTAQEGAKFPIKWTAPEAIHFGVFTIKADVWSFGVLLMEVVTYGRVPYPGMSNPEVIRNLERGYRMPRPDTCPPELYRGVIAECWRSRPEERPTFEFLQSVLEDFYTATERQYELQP

C=CC(=O)Nc1cc(Cn2ncc3cnc(Nc4cnn(C)c4)nc32)ccc1F [Example 2, […]]
IC50: 2000 nM
